Measured values published in PMC8058733, “A pain killer without analgesic tolerance designed by co-targeting PSD-95-nNOS interaction and α2-containning GABAARs” (Theranostics, 2021).

Tests used:
PSD-95-nNOS complex = biological target: T1, PSD-95-nNOS complex (Rattus norvegicus, UniProt P29476); assay: Co-IP of PSD-95-nNOS complex levels in the spinal dorsal horn after SNL; format: in vivo; conditions: SNL rats, (+)-borneol 5 mg/kg/d, i.v., × 3 d
T1 construct: dorsal spinal cord tissues (L4 and L5) were lysed in 400 μl RIPA; from tissue; host or cells: rat dorsal spinal cord (L4 and L5), SNL model
T1 sequence (P29476 whole entry, one chain of several): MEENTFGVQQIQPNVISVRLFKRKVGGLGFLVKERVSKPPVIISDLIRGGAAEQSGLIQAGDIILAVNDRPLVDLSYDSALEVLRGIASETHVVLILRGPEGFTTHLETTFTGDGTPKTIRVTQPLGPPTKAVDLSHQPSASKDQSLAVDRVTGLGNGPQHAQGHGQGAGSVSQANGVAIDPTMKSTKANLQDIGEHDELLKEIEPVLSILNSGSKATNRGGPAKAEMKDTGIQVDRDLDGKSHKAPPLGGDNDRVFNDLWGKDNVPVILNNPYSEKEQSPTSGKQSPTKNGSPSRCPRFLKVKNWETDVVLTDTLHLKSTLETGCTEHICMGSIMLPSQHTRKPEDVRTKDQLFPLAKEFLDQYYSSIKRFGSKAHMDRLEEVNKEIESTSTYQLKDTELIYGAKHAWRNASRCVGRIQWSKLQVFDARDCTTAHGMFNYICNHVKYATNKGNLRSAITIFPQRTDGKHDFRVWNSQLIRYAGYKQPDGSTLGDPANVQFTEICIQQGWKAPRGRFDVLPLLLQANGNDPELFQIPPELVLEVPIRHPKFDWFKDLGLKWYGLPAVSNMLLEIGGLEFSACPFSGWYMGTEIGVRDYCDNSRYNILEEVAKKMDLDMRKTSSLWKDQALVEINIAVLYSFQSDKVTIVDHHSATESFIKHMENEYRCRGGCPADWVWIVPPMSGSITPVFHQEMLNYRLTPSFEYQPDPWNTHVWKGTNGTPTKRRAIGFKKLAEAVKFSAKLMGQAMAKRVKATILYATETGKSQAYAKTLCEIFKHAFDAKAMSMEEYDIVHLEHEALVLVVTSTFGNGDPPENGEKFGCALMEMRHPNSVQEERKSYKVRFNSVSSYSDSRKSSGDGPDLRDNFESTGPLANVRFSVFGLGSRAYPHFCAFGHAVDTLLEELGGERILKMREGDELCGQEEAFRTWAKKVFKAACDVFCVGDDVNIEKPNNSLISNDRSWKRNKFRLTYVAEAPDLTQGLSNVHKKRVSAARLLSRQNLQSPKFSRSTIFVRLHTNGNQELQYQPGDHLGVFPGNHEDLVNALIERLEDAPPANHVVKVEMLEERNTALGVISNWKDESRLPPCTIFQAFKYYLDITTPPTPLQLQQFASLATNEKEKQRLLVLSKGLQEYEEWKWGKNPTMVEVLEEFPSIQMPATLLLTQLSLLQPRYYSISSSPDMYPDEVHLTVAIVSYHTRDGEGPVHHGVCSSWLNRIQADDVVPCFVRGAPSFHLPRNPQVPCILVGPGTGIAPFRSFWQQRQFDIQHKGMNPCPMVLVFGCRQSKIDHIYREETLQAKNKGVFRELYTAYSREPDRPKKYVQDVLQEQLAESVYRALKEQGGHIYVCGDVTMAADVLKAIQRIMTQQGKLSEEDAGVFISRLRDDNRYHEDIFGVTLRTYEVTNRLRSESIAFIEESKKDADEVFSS

α3β3γ2 GABAARs = biological target: T2, α3β3γ2 GABAARs (Homo sapiens, UniProt P18507+P28472+P34903); assay: Potentiation of GABA-evoked currents, whole-cell patch-clamp in HEK293 cells transiently expressing recombinant GABAARs; format: cell-based; conditions: α3β3γ2, n = 8
T2 construct: Shanghai Genechem Co.,Ltd (γ2 plasmid); host or cells: HEK293
T2 sequence (P34903 29-492): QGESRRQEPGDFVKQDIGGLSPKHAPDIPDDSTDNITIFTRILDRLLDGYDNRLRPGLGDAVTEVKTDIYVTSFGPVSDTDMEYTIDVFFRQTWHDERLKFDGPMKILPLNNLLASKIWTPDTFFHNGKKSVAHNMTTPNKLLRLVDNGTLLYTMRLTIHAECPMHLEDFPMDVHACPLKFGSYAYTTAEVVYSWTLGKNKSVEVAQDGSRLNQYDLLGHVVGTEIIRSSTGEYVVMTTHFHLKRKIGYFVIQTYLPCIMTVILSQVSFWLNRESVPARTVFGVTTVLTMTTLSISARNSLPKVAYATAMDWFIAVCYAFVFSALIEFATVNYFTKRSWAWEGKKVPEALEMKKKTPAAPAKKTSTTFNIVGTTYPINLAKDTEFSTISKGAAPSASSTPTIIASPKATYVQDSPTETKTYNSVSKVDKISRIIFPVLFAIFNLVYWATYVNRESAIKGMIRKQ
T2 sequence (P28472 26-473): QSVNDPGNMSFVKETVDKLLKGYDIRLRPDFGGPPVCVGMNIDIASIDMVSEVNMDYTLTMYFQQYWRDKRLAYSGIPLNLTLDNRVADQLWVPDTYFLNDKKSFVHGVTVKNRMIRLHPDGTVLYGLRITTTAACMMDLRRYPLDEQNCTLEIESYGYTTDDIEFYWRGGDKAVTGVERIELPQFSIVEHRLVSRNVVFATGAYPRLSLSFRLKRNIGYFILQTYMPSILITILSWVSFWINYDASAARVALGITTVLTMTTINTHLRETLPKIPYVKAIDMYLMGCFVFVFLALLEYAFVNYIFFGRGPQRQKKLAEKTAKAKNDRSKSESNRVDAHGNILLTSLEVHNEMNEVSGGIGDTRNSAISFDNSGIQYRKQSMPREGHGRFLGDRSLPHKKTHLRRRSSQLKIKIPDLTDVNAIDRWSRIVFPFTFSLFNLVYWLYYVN
T2 sequence (P18507 40-475): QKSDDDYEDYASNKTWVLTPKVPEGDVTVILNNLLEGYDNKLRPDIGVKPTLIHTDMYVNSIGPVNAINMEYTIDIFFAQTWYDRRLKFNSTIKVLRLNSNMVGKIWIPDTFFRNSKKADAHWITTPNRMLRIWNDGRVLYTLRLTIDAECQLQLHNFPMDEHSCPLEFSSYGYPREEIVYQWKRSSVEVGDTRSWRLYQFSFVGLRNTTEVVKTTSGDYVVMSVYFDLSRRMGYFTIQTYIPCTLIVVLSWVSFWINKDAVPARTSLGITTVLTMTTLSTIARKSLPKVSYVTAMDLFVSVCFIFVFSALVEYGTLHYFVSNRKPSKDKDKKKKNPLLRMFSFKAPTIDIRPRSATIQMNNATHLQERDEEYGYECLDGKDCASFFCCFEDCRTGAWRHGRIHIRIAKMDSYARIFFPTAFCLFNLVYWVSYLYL
Experimental: (§1) The affinities of drugs for α1, α2, α3 and α5 subunits were studied in the HEK293 cells (from FuHeng Biology, Shanghai, China) transiently expressing recombinant GABAARs (α1β2γ2, α2β3γ2, α3β3γ2 and α5β2γ2) as described previously. Briefly, the HEK293 cells were cultured in MEM medium supplemented with 10% FBS (fetal bovine serum, Gibico), 1% L-glutamine (Gibco) and 1% mycillin (Gibco). Before transfection, the cells were subcultured onto a 3.5cm dish at the ratio of 1:2. Then, the plasmids of α1/α2/α3/α5 (Origene), β2/β3 (Origene) and γ2 (Shanghai Genechem Co.,Ltd ) (5μg total DNA, ratio 1:1:2) were transfected using Fugene®HD transfection reagent (Promega). The γ2 subunit contained GFP from IRES (internal ribosomal entry site) and was used as a marker of the successful transfection. Cells were used for electrophysiology recording 18-36 hours after transfection.
(§2) Electrophysiology recordings from HEK293 cells were performed as described previously. Briefly, whole-cell patch-clamp recordings of GABA-evoked currents were made at 30 °C with the holding potential of -60 mV. The internal solution (solution in recording electrodes) contained (in mM): 120 CsCl, 10 EGTA, 10 HEPES, 4 MgCl2, 0.5 GTP, 2 ATP and pH was adjusted to 7.4 with CsOH and the external solution contained (in mM): 150 NaCl, 10 KCl, 2 CaCl2, 1 MgCl, 10 HEPES, 10 Glucose and pH was adjusted to 7.4 with NaOH. ACSF was bubbled continuously with carbogen (95%O2 and 5%CO2). For the recording of GABA-evoked currents, the slides were transferred to a recording chamber, which was perfused with ACSF at a rate of 4 ml/min. The cells were viewed under upright microscopy (Olympus), and GFP-positive cells were selected to record the currents. The interval time between each different dose of GABA was controlled, 3 to 5 minutes to avoid the desensitization of GABAARs.

α1β2γ2 GABAARs = biological target: T3, α1β2γ2 GABAARs (Homo sapiens, UniProt P14867+P18507+P47870); assay: as above; format: cell-based; conditions: α1β2γ2
T3 construct: Shanghai Genechem Co.,Ltd (γ2 plasmid); host or cells: HEK293
T3 sequence (P14867 28-456): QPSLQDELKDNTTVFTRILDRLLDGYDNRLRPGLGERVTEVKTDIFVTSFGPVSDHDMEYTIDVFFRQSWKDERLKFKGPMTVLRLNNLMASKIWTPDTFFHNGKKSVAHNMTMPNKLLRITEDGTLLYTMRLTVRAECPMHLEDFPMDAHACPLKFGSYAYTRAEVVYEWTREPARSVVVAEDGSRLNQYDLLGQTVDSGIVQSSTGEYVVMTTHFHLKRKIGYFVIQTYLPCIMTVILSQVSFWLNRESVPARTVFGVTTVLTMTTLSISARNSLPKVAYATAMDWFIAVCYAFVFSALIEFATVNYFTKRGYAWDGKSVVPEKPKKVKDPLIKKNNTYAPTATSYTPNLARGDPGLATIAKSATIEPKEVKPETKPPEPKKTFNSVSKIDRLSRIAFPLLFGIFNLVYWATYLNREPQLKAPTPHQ
T3 sequence (P47870 25-512 limits assumed): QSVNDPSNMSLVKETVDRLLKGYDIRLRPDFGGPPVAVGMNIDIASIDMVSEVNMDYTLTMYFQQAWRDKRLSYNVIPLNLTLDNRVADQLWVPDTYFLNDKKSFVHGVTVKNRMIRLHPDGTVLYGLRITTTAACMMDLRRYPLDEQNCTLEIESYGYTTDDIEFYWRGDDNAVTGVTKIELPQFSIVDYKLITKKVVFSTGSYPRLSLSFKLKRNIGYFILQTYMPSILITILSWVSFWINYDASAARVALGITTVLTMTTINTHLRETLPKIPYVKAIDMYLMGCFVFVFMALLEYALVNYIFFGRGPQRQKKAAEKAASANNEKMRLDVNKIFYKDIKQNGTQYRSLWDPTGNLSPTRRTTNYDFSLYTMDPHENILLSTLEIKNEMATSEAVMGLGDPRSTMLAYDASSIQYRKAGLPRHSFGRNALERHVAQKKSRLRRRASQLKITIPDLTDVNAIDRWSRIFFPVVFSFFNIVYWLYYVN
T3 sequence (P18507 40-475): as the sequence (P18507 40-475) above
Experimental: as §1, §2

α2β3γ2 GABAARs = biological target: T4, α2β3γ2 GABAARs (Homo sapiens, UniProt P18507+P28472+P47869); assay: as above; format: cell-based; conditions: α2β3γ2, n = 8
T4 construct: Shanghai Genechem Co.,Ltd (γ2 plasmid); host or cells: HEK293
T4 sequence (P47869 29-451): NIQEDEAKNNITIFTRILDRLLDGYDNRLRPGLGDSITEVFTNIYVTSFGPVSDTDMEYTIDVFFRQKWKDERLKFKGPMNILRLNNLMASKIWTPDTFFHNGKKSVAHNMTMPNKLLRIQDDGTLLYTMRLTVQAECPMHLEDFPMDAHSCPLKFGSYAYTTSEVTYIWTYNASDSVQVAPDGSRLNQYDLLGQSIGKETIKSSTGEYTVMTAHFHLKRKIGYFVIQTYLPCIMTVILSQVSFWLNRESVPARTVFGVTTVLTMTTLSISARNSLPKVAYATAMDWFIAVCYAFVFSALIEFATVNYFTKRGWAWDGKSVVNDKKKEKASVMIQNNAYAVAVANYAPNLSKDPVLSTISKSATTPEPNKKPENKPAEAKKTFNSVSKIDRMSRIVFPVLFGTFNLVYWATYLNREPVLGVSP
T4 sequence (P28472 26-473): as the sequence (P28472 26-473) above
T4 sequence (P18507 40-475): as the sequence (P18507 40-475) above
Experimental: as §1, §2

[1] = test system: SNL-induced mechanical hyperalgesia; assay: SNL-induced mechanical hyperalgesia, paw withdrawal threshold; format: in vivo, rat; conditions: SNL rats, (+)-borneol 5 mg/kg/d, i.v., 11 consecutive days
Experimental: Neuropathic pain was induced by segmental spinal nerve ligation (SNL). Animals were anesthetized with isoflurane. After the loss of righting reflex, the animal was fixed in the prone position. The SNL model was prepared as described previously: a median skin incision with about 3-5 cm length in L4-S2 level of the mouse back was made, the muscles next to the vertebrae till the sixth lumbar protruding were separated, the L5/L6 joint protruding on the right side was exposed and excised, and L6 processus transversus was partially split so that the L4-L6 spinal nerves on the right side were exposed. L5 nerve was gently isolated and tightly ligated with 5-0 silk thread. The wound was closed with 4-0 silk thread suture and covered with iodine solution. After nerve ligation, animals with signs of paw clonus or autotomy were excluded from further experiments.
Osmotic minipumps (models 1004 for mouse and 2ML4 for rat; Alzet) and intrathecal cannulas (0.61 mm outer diameter and 0.28 mm inner diameter for mouse, 0.99 mm outer diameter and 0.58 mm inner diameter for rat) were filled with a solution of PBS. Cannulas were inserted into the subarachnoid space through the space between the L5 and L6 vertebrae and the tip of the catheter was implanted at the L5 spinal segmental level.
For rats, the threshold for 50% paw withdrawal (50% PWT) response to mechanical stimulus was assessed through a dynamic plantar apparatus (Ugo Basile, Italy). The 50% PWT refers to that the probability of paw withdrawal response to repeated mechanical stimulus is 50%. Rats were placed individually in a plastic cage (17 × 15 × 15 cm) with a wire mesh bottom which allowed full access to the paws. Behavioral accommodation was allowed for 15-20 min until cage exploration and major grooming activities ceased. A maximal cut-off of 50g/50s was set to prevent tissue damage. To record the PWT in response to mechanical stimulus, each rat was measured five times with a 5-min interval, and the mean value was recorded after excluding maximal and minimum values. The experimental procedures were performed in a double-blind manner.

α3 subunit of GABAARs = assay: Western blot of GABAAR subunit levels in the spinal dorsal horn; format: in vivo, rat; conditions: SNL rats, (+)-borneol 5 mg/kg/d, i.v., × 11 d
Experimental: (§3) Western bolt analysis was performed as described previously. Briefly, the dorsal spinal cord (L4 and L5) was dissected from sham or SNL rats and homogenized in 400μl RIPA lysis buffer containing 1 μM pepstatin, 10 μg/ml aprotinin, 10 μg/ml leupeptin, 10 μg/ml and 10 μM phenylmethylsufonyl fluoride (PMSF). After lysis for 30 min in ice, samples were centrifuged at 12,000 g for 15 min. The protein content in each supernatant fraction was determined by using Bradford's solution, and samples containing equivalent amounts of protein were applied to 10% or 15% (10% for GABA(A)α2 and α3, 15% for BDNF) acrylamide denaturing gels (SDS-PAGE). The separated proteins were transferred onto a polyvinylidene fluoride membrane. The primary antibodies were as follows: rabbit anti-GABA(A)α2 (1:500; Millipore AB5948), rabbit anti-GABA(A)α3 (1:500; Millipore AB5594), rabbit anti-BDNF (1:1000; Thermo PA1-18357, RRID:AB_1070634). Internal control was performed using rabbit anti-β-actin (1:1000; Bioss bs-0061R, RRID: AB_10855480). Appropriate horseradish peroxidase-linked secondary antibodies were used for detection by enhanced chemiluminescence (Bio-Rad).

α2 subunit of GABAARs = assay: as above; format: in vivo, rat; conditions: SNL rats, (+)-borneol 5 mg/kg/d, i.v., × 11 d
Experimental: as §3

BDNF = assay: Western blot of BDNF levels in the spinal dorsal horn after SNL; format: in vivo, rat; conditions: SNL rats, (+)-borneol 10 mg/kg, i.v., × 3 d
Experimental: as §3

locomotor activity = assay: Open field test, locomotor activity; format: in vivo; conditions: mice, (+)-borneol 45 mg/kg, i.v.
Experimental: The locomotor activity was assessed by the open field test as described previously. The apparatus consisted of a large area composed of plastic, surrounded by walls that were 100 cm high. The floor was 50 × 50 cm for mice; the overall illumination was 25 lux. Each animal was gently placed in the center of the open field, and its behavior was videotaped. The distance the animals travelled was measured in a 5-min session using ANY-maze (Stoelting Co., IL, USA). After each trial, the plate was cleaned with 70% EtOH. No stressor was applied to the animals for at least 12 h before the test.

α1-containing GABAAR = test system: α1-containing GABAAR; set-up: method as in PMID 15763546; conditions: Xenopus laevis oocytes, high dose; cited from earlier work
[2] = test system: putative excitatory neurons of brain cortex; assay: Potentiation of GABA-evoked currents in acute brain cortex slices; format: cell-based; conditions: Neuron; rat brain cortex slices, n = 12

CC1(C)[C@@H]2CC[C@@]1(C)[C@@H](O)C2 [(+)-borneol]
PSD-95-nNOS complex level in the SDH (PSD-95-nNOS complex): increased nNOS-PSD-95 interaction in the SDH significantly
Emax (α3β3γ2 GABAARs): 109 ± 6.05%
Effect on GABA-evoked currents of α1-containing GABAAR (in words) (α1β2γ2 GABAARs): no effect on GABA-evoked currents as high as 10 μM
Emax (α2β3γ2 GABAARs): 122 ± 11%
Analgesic tolerance, mechanical hyperalgesia [1]: caused analgesic tolerance development rapidly
α3 subunit of GABAARs expression in the SDH (α3 subunit of GABAARs): decreased α2 and α3 subunits of GABAARs expressions
α2 subunit of GABAARs expression in the SDH (α2 subunit of GABAARs): decreased α2 and α3 subunits of GABAARs expressions
SNL-induced BDNF expression in the SDH (BDNF): significantly decreased SNL-induced BDNF expression in the SDH
Locomotor activity, distance travelled during 5 min (locomotor activity): without BZDs-associated behavioral effects
Modulation of α1-containing GABAAR (α1-containing GABAAR): can positively modulate α1-containing GABAAR expressed in Xenopus laevis oocytes at high dose
EC50 [2]: 423.6 ± 1.4 pM
Emax [2]: 63.1 ± 3.4%
